According to PubChem BioAssay (NCI):
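Interpolation was linear, between the two tested concentrations surrounding the appropriate level; five concentrations were tested over 48 hours in 96-well plates. TGI marks complete inhibition of growth.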

Key:
Experiment in all cases: NCI anticancer screen, dose series, 48 h
CCRF-CEM leukemia = system: CCRF-CEM leukemia
OVCAR-5 ovarian = system: OVCAR-5 ovarian
MOLT-4 leukemia = system: MOLT-4 leukemia
NCI-H226 lung = system: NCI-H226 lung
SK-OV-3 ovarian = system: SK-OV-3 ovarian
NCI-H522 lung = system: NCI-H522 lung
SNB-19 CNS = system: SNB-19 CNS
PC-3 prostate = system: PC-3 prostate
NCI-H460 lung = system: NCI-H460 lung
SN12C renal = system: SN12C renal
A498 renal = system: A498 renal
NCI-H23 lung = system: NCI-H23 lung
IGROV1 ovarian = system: IGROV1 ovarian
MDA-MB-435 = system: MDA-MB-435
786-0 renal = system: 786-0 renal
A549 NSCLC = system: A549 NSCLC
SF-268 CNS = system: SF-268 CNS
T-47D breast = system: T-47D breast
SNB-75 CNS = system: SNB-75 CNS

Row | SMILES | TGI (CCRF-CEM leukemia) [µM] | TGI (OVCAR-5 ovarian) [µM] | TGI (MOLT-4 leukemia) [µM] | TGI (NCI-H226 lung) [µM] | TGI (SK-OV-3 ovarian) [µM] | TGI (NCI-H522 lung) [µM] | TGI (SNB-19 CNS) [µM] | TGI (PC-3 prostate) [µM] | TGI (NCI-H460 lung) [µM] | TGI (SN12C renal) [µM] | TGI (A498 renal) [µM] | TGI (NCI-H23 lung) [µM] | TGI (IGROV1 ovarian) [µM] | TGI (MDA-MB-435) [µM] | TGI (786-0 renal) [µM] | TGI (A549 NSCLC) [µM] | TGI (SF-268 CNS) [µM] | TGI (T-47D breast) [µM] | TGI (SNB-75 CNS) [µM]
1 | O=C1CN(C(=O)C2CCCN2C(=O)C2CCCN2)C(=O)CN1 (stereo not given) | > 100 | > 100 | > 100 | > 100 | > 100 | > 100 | > 100 | > 100 | > 100 | > 100 | > 100 | > 100 | > 100 | > 100 | > 100 | > 100 | > 100 | > 100 | > 100
2 | c1ccc(-c2cn3c(nc4ccccc43)c(-c3ccccc3)n2)cc1 | > 100 | > 100 | > 100 | > 96.7 | 38.4 | > 100 | 81.7 | > 100 | > 100 | > 100 | > 78.1 | > 100 | > 100 | > 100 | 45.1 | > 100 | > 100 | > 71.3 | > 32.9
3 | CO/C(N)=C(\C#N)N=Cc1ccco1 | > 100 | > 100 | > 100 | > 100 | > 100 | > 100 | – | > 100 | – | > 100 | > 100 | > 100 | > 100 | > 100 | > 100 | > 100 | > 100 | > 100 | > 100
4 | CCOC(=O)C1(Cc2ccccc2)C=CN(C(=O)c2ccccc2)C=C1 | 61.5 | > 100 | 73.6 | > 100 | > 100 | 76 | > 100 | > 100 | > 100 | > 100 | 74.3 | > 100 | > 100 | 90.5 | > 100 | > 100 | > 100 | 78.8 | 64.2
5 | O=c1[nH]nc(-c2ccccc2)n1/N=C/c1ccc([N+](=O)[O-])cc1 | > 100 | > 100 | > 100 | > 75 | 9.34 | > 100 | > 100 | > 100 | > 100 | > 100 | 49.7 | > 100 | > 100 | > 100 | 22.9 | > 100 | > 87.2 | > 60.2 | 34.9
6 | C=C1[C@H](OC(C)=O)[C@H]2[C@@H](OC(C)=O)[C@@H](C)C[C@]2(C)C(=O)[C@H](C)/C=C/C(C)(C)C(=O)[C@H](OCC(C)C)[C@H]1OC(C)=O | > 25 | > 25 | > 25 | > 25 | > 25 | > 25 | > 25 | > 25 | > 25 | > 25 | > 25 | > 25 | > 25 | > 25 | > 25 | – | > 25 | > 25 | > 25
7 | CC(=N)OC1CC2CCC1(C)C2(C)C (stereo not given) | > 100 | > 100 | > 100 | > 100 | > 100 | > 100 | – | > 100 | > 100 | > 100 | > 100 | > 100 | > 100 | > 100 | > 100 | > 100 | > 100 | > 100 | > 100
8 | COc1ccc2c(c1)-c1nc(=S)n(CCCN(C)C)c3ccc([N+](=O)[O-])c(c13)N2 | 1.41 | 3.62 | 2.15 | 24.4 | 19.4 | 2.98 | 11 | 17.4 | 10.3 | 10.3 | 22.2 | 4.31 | 2.41 | 16.7 | 1.36 | 14.8 | 21.7 | 40.8 | 22.8
9 | COc1cc2ncnc(Nc3cccc(Cl)c3)c2cc1OC | 19.6 | 47.2 | 54.2 | 14.8 | 28.9 | 18.4 | 82.1 | 70.2 | 40.7 | 45.8 | 9.84 | 44.5 | 10.3 | 34.1 | 44.1 | 49 | 53.9 | > 67.1 | 13.4
10 | CC(C)NC(NC(C)C)=C(S(=O)(=O)C(F)(F)C(F)(F)C(F)(F)C(F)(F)F)S(=O)(=O)C(F)(F)C(F)(F)C(F)(F)C(F)(F)F | > 100 | > 100 | > 100 | > 100 | > 100 | > 100 | > 100 | > 100 | > 100 | > 100 | > 100 | > 100 | > 100 | > 100 | > 100 | > 100 | > 100 | > 100 | > 100
11 | COc1nc(N=P(c2ccccc2)(c2ccccc2)c2ccccc2)cc(=O)[nH]1 | > 100 | > 100 | > 100 | > 100 | > 100 | > 100 | > 100 | > 100 | > 100 | > 100 | > 100 | > 100 | > 100 | > 100 | > 100 | > 100 | > 100 | > 100 | > 100
12 | O=c1oc2ccccc2cc1-c1csc(Nc2ccc(F)cc2)n1 | 16.3 | 20.9 | > 25.4 | 19.7 | 15.6 | 3.82 | > 37.6 | 19.3 | 22.3 | 10.1 | 5.09 | 11 | 21.9 | 17 | 3.17 | 3.23 | 9.09 | 10.7 | 4.57
13 | O=C1N=C(SC2OC(CO)C(O)C(O)C2O)S/C1=C\c1ccccc1 (stereo not given) | > 100 | > 100 | > 100 | > 100 | > 100 | > 100 | > 100 | > 100 | > 100 | > 100 | > 100 | > 100 | > 100 | > 100 | > 100 | > 100 | > 100 | > 100 | > 100
14 | O=S(=O)(SC1=NCCN1)c1ccc2ccccc2c1 | 68 | 49.6 | 56.8 | 98 | 54.7 | 46.3 | 39.1 | > 100 | 42.8 | 68.9 | > 100 | 61.8 | > 100 | 42.8 | 97.1 | 86.3 | 52.5 | > 100 | 68
15 | Cc1c(C)c(C)n(C2OC(CO)C(O)C(O)C2O)c(=S)c1C#N (stereo not given) | > 100 | > 100 | > 100 | > 100 | > 100 | > 100 | > 100 | > 100 | > 100 | > 100 | > 100 | > 100 | > 100 | > 100 | > 100 | > 100 | > 100 | > 100 | > 100
16 | CCCCCCCCCCCCN(CC(O)C(O)C(OC1OC(CO)C(O)C(O)C1O)C(O)CO)C(=O)CCCCCCCCCCC (stereo not given) | 65.1 | > 100 | 50.1 | 44.6 | 52.6 | 52.9 | 35.4 | 52.9 | 39.7 | 45.4 | 41.8 | 46.2 | 35.8 | 30.8 | 33.8 | 55.3 | 43.6 | 62.3 | 35
17 | CN(C)/N=C(/CC(O)(C(F)(F)F)C(F)(F)F)c1ccc([N+](=O)[O-])cc1 | > 100 | > 100 | > 100 | > 100 | > 100 | > 100 | > 100 | > 100 | > 100 | > 100 | > 100 | > 100 | > 100 | > 100 | > 100 | > 100 | > 100 | > 100 | > 100
18 | Clc1ccccc1-c1nc2ccc(C34CC5CC(CC(C5)C3)C4)cc2[nH]1 | > 100 | 54 | > 100 | > 100 | 42.9 | 43.1 | 21.6 | 34 | > 100 | 88.5 | 70 | 36.4 | 50.4 | > 100 | 25.9 | 23.4 | > 100 | 27.8 | 21.6
19 | O=C(O)c1ccccc1/C=N/NC1=NCCN1 | > 100 | > 100 | > 100 | > 100 | > 100 | > 100 | > 100 | > 100 | > 100 | – | > 100 | > 100 | > 100 | > 100 | > 100 | > 100 | > 100 | > 100 | > 100
20 | COC(=O)c1cc2c(cc1CC1Cc3cc4c(cc3C1=O)CCC4)CCC2 (stereo not given) | > 100 | > 100 | 57.5 | > 100 | > 100 | > 100 | > 100 | > 100 | > 100 | > 100 | > 100 | > 100 | > 100 | > 100 | > 100 | > 100 | > 100 | > 100 | > 100
21 | Nc1cccnc1NCC1(CO)CCCC1 | > 100 | > 100 | > 100 | > 100 | > 100 | > 100 | – | > 100 | > 100 | > 100 | > 100 | > 100 | > 100 | > 100 | > 100 | > 100 | > 100 | > 100 | > 100
22 | N#Cc1c(=O)n(-c2ccccc2)c(O)c2c(N)n[nH]c12 | – | > 100 | > 100 | > 100 | > 100 | > 100 | > 100 | > 100 | > 100 | > 100 | > 100 | > 100 | > 100 | > 100 | > 100 | > 100 | > 100 | > 100 | > 100
23 | c1ccc(-c2nc3ccccc3n3c(CN4CCCCC4)nnc23)cc1 | > 100 | > 100 | > 100 | > 100 | > 100 | > 100 | > 100 | > 100 | > 100 | > 100 | > 100 | – | > 100 | > 100 | > 100 | > 100 | > 100 | > 100 | 40.7
24 | Cc1cc(S(=O)(=O)Nc2nc(N)n(-c3ccccn3)n2)c(S)cc1Cl | > 100 | > 100 | > 100 | > 100 | > 100 | > 100 | > 100 | > 100 | > 100 | > 100 | > 100 | – | > 100 | > 100 | > 100 | > 100 | > 100 | > 100 | > 100
25 | O=c1cc(N2CCNCC2)nc2ccccn12 | > 100 | > 100 | > 100 | > 100 | > 100 | > 100 | > 100 | > 100 | – | > 100 | > 100 | > 100 | > 100 | > 100 | > 100 | > 100 | > 100 | > 100 | > 100
